The text below walks through data of patent US20240261443A1, “COMPOUNDS AND COMPOSITIONS USEFUL AS RADIOTRACERS FOR IMAGING OF REACTIVE OXIDATIVE SPECIES” (Wake Forest University Health Sciences, priority 2019, published 2024).

One data set deals with SCC-61 and rSCC-61 cells. The data set can be described thus: [18F]KS1 in vitro cell uptake in HNSCC cells. The format is cell-based, human. The method, then:
ROS efficacy was evaluated in two tumor cell lines: (1)SCC-61 and rSCC-61 cells (HNSCC) (FIG. 5), and (2) PC3 (PCa) cell lines under normoxic and hypoxic conditions (FIG. 6) following previously published protocols by our group (Sai et al., Peptide-based PET imaging of the tumor restricted IL13RA2 biomarker. Oncotarget 2017, 5; Yamamoto et al., Correlation of 18F-FLT and 18F-FDG uptake on PET with Ki-67 immunohistochemistry in non-small cell lung cancer. European Journal of Nuclear Medicine and Molecular Imaging 2007, 34 (10), 1610-1616; Solingapuram Sai et al., Radiolabeling and initial biological evaluation of [18F]KBM-1 for imaging RAR-α receptors in neuroblastoma. Bioorganic & Medicinal Chemistry Letters 2017, 27 (6), 1425-1427). Several ROS blockers including fresh solution of non-radioactive compounds KS1, KS2, SOD (10 μM) in the cell media were added to the seeded tumor cells 1.0 h prior to radiotracer addition (n=6 per blocker). All the cells were then treated with [^18F]KS1 (2.0 μCi/well, UV mass=0.4 μg/mL and S.A=3100 mCi/μmol) and incubated for 60 min (n=6) at 37° C. All the cells (both with and without blockers) were washed and lysed with lysate buffer solution. Lysate samples from each well were collected for gamma counting.
Similarly, in another experiment, human PCa-PC3 cells were cultured under normoxic (˜21% O2) or hypoxic (1% O2) conditions for 48 h. Thereafter, similar to HNSCC cells (detailed above) all assay steps including blocker treatment, radiotracer addition, incubations, washings and lysis were carried out under normoxic or hypoxic conditions. All hypoxia experiments were performed in a hypoxia chamber (Biospherix X3 Xvivo system). Plates without radioactivity were used as controls. Additional aliquots were taken from each well to measure protein concentration. The counts per minute values of each well were normalized to the amount of radioactivity added to each well and was expressed as percent uptake relative to the control condition. The data were expressed as % ID/mg of protein present in each well.
We reported the basic in vitro cell uptake assay of [^18F]KS1 in PC3 and SCC-61 cell lines using KS1 and ascorbate as blockers (Solingapuram Sai et al., Initial biological evaluations of 18F-KS1, a novel ascorbate derivative to image oxidative stress in cancer. EJNMMI Research 2019, 9 (1), 43), following previously published protocols by our group (Sai, et al., Peptide-based PET imaging of the tumor restricted IL13RA2 biomarker. Oncotarget 2017, 8 (31), 50997-51007; Solingapuram Sai et al., Radiolabeling and initial biological evaluation of [(18)F]KBM-1 for imaging RAR-α receptors in neuroblastoma. Bioorganic & medicinal chemistry letters 2017, 27 (6), 1425-1427; Sattiraju et al., IL13RA2 targeted alpha particle therapy against glioblastomas. Oncotarget 2017, 8 (26), 42997-43007). Here we report complete cell uptake of [^18F]KS1 in SCC-61 and rSCC-61 cell lines of HNSCC using several ROS blocking agents including ascorbate, SOD, catalase, DHE, and non-radioactive compounds KS1 ([…]) and few ROS inducers including doxorubicin and ferritin. These agents were added in the cell media to the seeded tumor cells 1.0 h prior to radiotracer addition (n=6 per blocker). The y counts per minute values of each well were normalized to the amount of radioactivity added to each well and the protein concentration in the well and expressed as percent uptake relative to the control condition. The data were expressed as % ID/mg of protein present in each well. […]

Data set [1] concerns SCC-61 and rSCC-61 tumors. The data set can be described thus: microPET/CT imaging in SCC-61 and rSCC-61 tumor-bearing mice. The class given is in vivo. The text has this: After evaluating the complete in vitro ROS uptake and stability profile of [^18F]KS1, we performed in vivo microPET/CT scans in tumor-bearing mice. To test our hypothesis of selective binding of [^18F]KS1 to image ROS in tumor tissue, we reported the baseline and blocking PET imaging data in a murine model of PCa (Solingapuram Sai et al., Initial biological evaluations of 18F-KS1, a novel ascorbate derivative to image oxidative stress in cancer. EJNMMI Research 2019, 9 (1), 43). Further, to test the differential ROS uptake of [^18F]KS1, microPET/CT imaging experiments were performed in both SCC-61 and rSCC-61 tumor-bearing mice (n=5, 25±2.5 g).

For data set [2], the system named is SCC-61 and rSCC-61 cell lines. The data set can be described thus: MitoSOX fluorescence ROS assay, with or without SOD blocker. The format is cell-based, human. The method, then: As a first-line tool to screen KS1 and KS2: SCC-61 has higher intracellular ROS than rSCC-61. MitoSOX is a mitochondrion-targeted dihydroethidium based derivative that primarily detects ROS (superoxide anion) produced within mitochondria. Mitosox assays without any ligands were used as controls. The two cell lines were treated with KS1, KS2 and ascorbate (10.0 μM) and incubated for an hour. MitoSOX (1.0 μM) in phenol red-free DMEM/F12 media was added and incubated for an additional 10 min. The cells were then washed with PBS and imaged in the same media.
In addition to testing KS1 with the MitoSOX assay, we compared our results with no ligand controls and ascorbate as a reference standard. The two cell lines were treated with KS1 and ascorbate (10.0 μM) and incubated for an hour. MitoSOX (1.0 μM) in phenol red-free DMEM/F12 media was added and incubated for an additional 10 min. The cells were then washed with PBS and imaged in the same media. Ligand specificity is commonly determined by pretreating the cells with high concentrations of blockers. Superoxide dismutase (SOD), an enzyme that selectively suppresses accumulation of ROS-superoxide peroxide anions, was added as blocker (1.0 mM) 60 min before the treatment of KS1 (Bielski et al., Chemistry of ascorbic acid radicals. in Ascorbic Acid: Chemistry, Metabolism, and Uses. Chapter. 1982; 4:81-100). Fluorescence was subsequently measured and its intensity was quantified in f.u (fluorescence units).
Ligand specificity is commonly determined by pretreating the cells with high concentrations of blockers. We used superoxide dismutase (SOD), an enzyme that selectively suppresses accumulation of ROS-superoxide peroxide anions (Bielski et al., Chemistry of ascorbic acid radicals. in Ascorbic Acid: Chemistry, Metabolism, and Uses. Chapter 1982, 4, 81-100). The same MitoSOX assay with KS1 and KS2 (10 μM) was performed by pretreating the SCC-61 cells with SOD (1.0 mM) for 60 min.

Consider `O=C1O/C(=C/CCl)C(O)=C1OCc1ccc(OCC[18F])cc1` [[^18F]KS1], for which, in the data set on SCC-61 and rSCC-61 cells (Example 8), the “uptake increase with ROS inducer doxorubicin” value is reported as around 30%. Further, the “radioactive uptake in SCC-61 cells compared to rSCC-61 uptake” value with SCC-61 and rSCC-61 cells (Example 8, 60 min, 37° C.) is reported as around 1.5 fold. Also, the “uptake blocked by nonradioactive KS1” value in the data set with SCC-61 and rSCC-61 cells (Example 8, KS1 10 μM added 1.0 h prior) was around 40%. Further, in the data set on SCC-61 and rSCC-61 cells (Example 8, SOD 10 μM added 1.0 h prior), the “uptake blocked by SOD” value was around 60%. For the same molecule, in the data set on SCC-61 and rSCC-61 cells (Example 14), the “radioactive uptake in SCC-61 cells compared to rSCC-61 uptake” value was around 3 fold, the “radioactive uptake increased by ROS-inducer Dox” value was around 20%, the “radioactive uptake increased by ferritin” value is around 32% and the “radioactive uptake inhibited by catalase” value is around 90%. Further, in the data set on SCC-61 and rSCC-61 cells (Example 14, KS1 (100 PM) added 1.0 h prior), the “uptake in SCC-61 cells blocked by nonradioactive KS1” value is recorded as around 70%. Also, in the data set on SCC-61 and rSCC-61 cells (Example 14, added 1.0 h prior), the “uptake in SCC-61 cells blocked by SOD” value is reported as around 65% and the “uptake in SCC-61 cells blocked by ascorbate” value is around 65%. For the same molecule, the “tumor uptake in SCC-61 tumors versus rSCC-61 tumors” value in data set [1] (ROI analysis on PET scans) is reported as around 1.2 fold. Further, the “residual uptake in other organs, including bladder and kidney” value in data set [1] (post 1-h radiotracer injection) is “no residual uptake”.
As for `O=C1O/C(=C/CCl)C(O)=C1OCc1ccc(OCCF)cc1` [KS1, (E)-5-(2-chloroethylidene)-3-(4-(2-fluoroethoxy)benzyloxy)-4-hydroxyfuran-2(5H)-one], the “MitoSOX fluorescence in SCC-61 compared to rSCC-61 cells” value in data set [2] (10.0 μM, 1 h incubation) is “higher fluorescence”. For the same molecule, the “higher selectivity between the two cell lines compared to ascorbate selectivity” value in data set [2] (Example 4, SCC-61 vs rSCC-61, MitoSOX fluorescence) is reported as around 10 fold. The “higher differential selectivity between the high- and low-ROS cell lines compared to ascorbate” value in data set [2] (Example 5, SCC-61 vs rSCC-61, MitoSOX fluorescence) is on record as around 2.2 fold. For the same molecule, in data set [2] (SCC-61 cells, 10 μM, SOD (1.0 mM) pretreatment 60 min), the “fluorescent intensity of KS1-mitoSOX with SOD” value is 1842 f.u. In addition, the “fluorescent intensity of KS1-mitoSOX” value in data set [2] (SCC-61 cells, 10 μM, without SOD) worked out at 3631 f.u. Moreover, the “decrease of fluorescent uptake by SOD pretreatment” value in data set [2] (SCC-61 cells, SOD (1.0 mM) for 60 min) was around 50%.
